The text below walks through data of patent publication US10082496B2, “Targeting emopamil binding protein (EBP) with small molecules that induce an abnormal feedback response by lowering endogenous cholesterol biosynthesis” (Board of Regents of the University of Texas System, priority 2014, dated 2018).

One data set concerns HCT-116. As to the kind of experiment: In vitro APC inhibition assay (MTT), HCT-116. The format is cell-based. The following applies: Homo sapiens, HCT-116, read-out: IC50 (nM) in HCT-116. Here is the method: (§1) The small molecule anti-cancer compounds were evaluated for the ability to inhibit the activity of APC in an in vitro assay.
Reagents required for the assay are: (3-[4,5-Dimethylthiazol-2-yl]-2,5-diphenyltetrazolium bromide; Thiazolyl blue; RPI corp., cat# M92050); RPMI-1640 or Medium of Choice (i.e. DMEM) without phenol red; 1M Hepes; 100 mM NaPyruvate; 1000× Gentamicin (50 mg/ml); 100× Penicillin/Streptomycin/Fungizone; 1×PBS; Triton X-100; 1N HCl and Isopropanol. To make the MTT solution (10×), MTT powder was dissolved into complete RPMI (or DMEM solution) to a final concentration of 5 mg/mL and was sterilized by filtration with a 0.2 μm filter. The MTT solubilization solution contained 10% Triton X-100, 0.1N and 80% isopropanol. MTT solution was diluted to 1× with complete medium at 12 mL per plate. The culture dishes (96 wells) were removed from the incubator and the media was discarded. The plates were washed three times with 1×PBS. 100 μl of 1×MTT solution was added to each well and the plates were incubated in a tissue culture incubator for 2-4 hours, depending on the cell line. The cells were removed from the incubator and the MTT solution was discarded. 200 μl of 1×MTT solubilization solution was added to each well using a multi-channel pipetor and the cells were placed on an orbital shaker for 10 minutes. The results were read on a microtiter plate reader (absorbance=570 nm, reference=700 nm) and data was exported.
(§2) Percent inhibition was determined relative to control reactions without inhibitor, and half maximal inhibitory concentration (IC50) values were determined using a standard four parameter fit to the inhibition data.

The subject of another data set is HT-29. As to the kind of experiment: In vitro APC inhibition assay (MTT), HT-29. The format is cell-based. The following applies: Homo sapiens, HT-29, HT-29 (truncated APC). The protocol: as §1
(§3) Reagents required for the assay are: (3-[4,5-Dimethylthiazol-2-yl]-2,5-diphenyltetrazolium bromide; Thiazolyl blue; RPI corp., cat# M92050); RPMI-1640 or Medium of Choice (i.e. DMEM) without phenol red; 1M Hepes; 100 mM NaPyruvate; 1000× Gentamicin (50 mg/ml); 100× Penicillin/Streptomycin/Fungizone; 1×PBS; Triton X-100; 1N HCl and Isopropanol. To make the MTT solution (10×), MTT powder was dissolved into complete RPMI (or DMEM solution) to a final concentration of 5 mg/mL and was sterilized by filtration with a 0.2 μm filter. The MTT solubilization solution contained 10% Triton X-100, 0.1N and 80% isopropanol. MTT solution was diluted to 1× with complete medium at 12 mL per plate. The culture dishes (96 wells) were removed from the incubator and the media was discarded. […] The cells were removed from the incubator and the MTT solution was discarded.
as §2

For the next data set, the system named is DLD-1. As to the kind of experiment: In vitro APC inhibition assay (MTT), DLD-1. The format is cell-based. The following applies: Homo sapiens, DLD-1, DLD-1 (truncated APC). Here is the method: as §1, §3, §2
A further data set is described as follows: S9 half-life. The format is in vitro ADME. The following applies: S9 fraction; read-out: S9 T1/2.
A further data set relates to DLD1 cells. As to the kind of experiment: Dose response studies in CRC line DLD1 (truncated APC). The settings on record: varying doses. The format is cell-based, human. Here is the method: These 14 compounds then were obtained commercially and their IC50 determined by performing dose response studies with half log dilution series at 12 concentration points in two authentic CRC lines: HCT116 (wt APC) and DLD1 (truncated APC).
DLD-1 cells normally are cultured in 10% serum medium, and they are rapidly shifted to 0.2% serum medium for dose response studies.

Another data set deals with HCT116 cells. Description: Dose response studies in CRC line HCT116 (wt APC). The format is cell-based. The following applies: Homo sapiens, HCT-116; read-out: IC50 towards HCT116 cells. The text has this:
These 14 compounds then were obtained commercially and their IC50 determined by performing dose response studies with half log dilution series at 12 concentration points in two authentic CRC lines: HCT116 (wt APC) and DLD1 (truncated APC). […] These two compounds served as initial lead compounds for analog development and for additional studies.

In the next data set the test system is DLD1 tumors. As to the kind of experiment: DLD1 xenograft mouse model. The format is in vivo. The settings on record: 40 mg/kg intraperitoneally twice daily for 18 days.
For data set [1], the system named is colorectal tumors in CPC;Apc mice. As to the kind of experiment: CPC;Apc genetically engineered mouse model of colorectal tumors. The following applies: in vivo. The protocol: These mice carry a CDX2P-NLS Cre recombinase transgene and a loxP-targeted Apc allele that deletes exon 14, leading to a frame shift at codon 580 and a truncated APC protein (Hinoi, T. et al. Mouse model of colonic adenoma-carcinoma progression based on somatic Apc inactivation. Cancer Res 67, 9721-9730 (2007)). […] Weights were measured every 15 days over the treatment period. These studies were performed according to the guidelines of the UT Southwestern Institutional Animal Care and Use Committee.

On to `C#CCC1CCN(C2CCN(S(=O)(=O)c3ccccc3)CC2)CC1`, for which the IC50 in the data set on HCT-116 is above 10000 nM; with HT-29, 4 nM; with DLD-1 it was 18 nM. In addition, the half-life in “S9 half-life” was 25.2 min.

Consider `CC1CCN(C2CCN(S(=O)(=O)c3c(C(C)C)cc(C(C)C)cc3C(C)C)CC2)CC1`, for which, in the data set on DLD-1, the concentration for half-maximal inhibition (IC50) amounted to 0.7 nM. For the same compound, the half-life in “S9 half-life” was 59 min.

Take `COc1ccc2c(c1)CCC(c1ccccc1)=C2c1ccc(OCCN2CCCC2)cc1` [Nafoxidine]: the “sensitivity of DLD-1 vs HCT-116 cells to EBP inhibitors (FIG. 10)” value in the data set with DLD1 cells was “selectively sensitive”.

In the case of `CC(C(O)c1ccc(O)cc1)N1CCC(Cc2ccccc2)CC1` (stereo not shown) [Ifenprodil], the “sensitivity of DLD-1 vs HCT-116 cells to EBP inhibitors (FIG. 10)” value in the data set on DLD1 cells is “selectively sensitive”.

Take `COc1ccc(S(=O)(=O)N2CCC(N3CCC(C)CC3)CC2)cc1` [TASIN-1]: the concentration for half-maximal inhibition (IC50) in the data set on HCT116 cells was above 10 µM. Also, the overt toxicity entry in the data set on DLD1 tumors is “no overt toxicity”. Besides, the “toxicity in xenograft and genetically engineered CRC mouse models” value in data set [1] is “without noticeable toxicity”.

The compound `CC1CCN(C2CCN(S(=O)(=O)c3cccc4c3OCCO4)CC2)CC1` yielded an IC50 with DLD-1 of 10 nM. For the same compound, in “S9 half-life”, the half-life was found to be 22.6 min.
